# Data published in ChEMBL document CHEMBL3259698, “Reductions in log P improved protein binding and clearance predictions enabling the prospective design of cannabinoid receptor (CB1) antagonists with desired pharmacokinetic properties” (J Med Chem, 2013).
# Columns and labels:
# Cytochrome P450 3A4 = Cytochrome P450 3A4 (Homo sapiens, UniProt P08684); assay: Inhibition of human recombinant CYP3A4
# Cytochrome P450 2C9 = Cytochrome P450 2C9 (Homo sapiens, UniProt P11712); assay: Inhibition of human recombinant CYP2C9; assay type: ADME
# Cannabinoid receptor 1 = Cannabinoid receptor 1 (Homo sapiens, UniProt P21554); assay: Binding affinity to human CB1 receptor expressed in CHO cells by radioligand displacement based scintillation counting analysis; assay type: cell-based
# [1] = Lipophilicity, log P of the compound by HPLC analysis; assay type: physicochemical
# Cytochrome P450 2C19 = Cytochrome P450 2C19 (Homo sapiens, UniProt P33261); assay: Inhibition of human recombinant CYP2C19; assay type: ADME
# [2] = Elimination half life in human; assay type: ADME, organism-based; details: in vivo, read-out: beta t1/2 (converted)
# [3] = Clearance in Sprague-Dawley rat at 3 mg/kg, iv; details: in vivo
# Rattus norvegicus [4] = assay: Reduction in food intake in nonfasted po dosed Sprague-Dawley rat measured for 20 hrs; assay type: functional; details: read-out: MED
# [5] = Terminal half life in Sprague-Dawley rat at 3 mg/kg, iv; assay type: ADME, organism-based; set-up: dose 3 mg/kg, route intravenous; details: in vivo, read-out: beta t1/2 (converted)
# [6] = Fraction unbound in rat plasma at 10 uM by equilibrium dialysis method; assay type: ADME, cell-free
# Rattus norvegicus [7] = assay: Antiobesity activity in diet-induced obese rat as reduction in body weight at 10 mg/kg, po after 28 days; assay type: functional; set-up: scale not given: the % may be the effect or the level left
# Rattus norvegicus [8] = assay: Antiobesity activity in rat assessed as reduction in body weight at 10 mg/kg, qd after 4 days; assay type: functional; set-up: scale not given: the % may be the effect or the level left
# Rattus norvegicus [9] = assay: Reduction in food intake in nonfasted Sprague-Dawley rat at 3 mg/kg, po measured for 8 hrs; assay type: functional; set-up: scale not given: the % may be the effect or the level left
# Rattus norvegicus [10] = assay: Reduction in food intake in nonfasted po dosed Sprague-Dawley rat measured for 8 hrs; assay type: functional; details: read-out: MED
# [11] = Elimination half life in iv dosed cynomolgus monkey; assay type: ADME, organism-based, Macaca fascicularis; details: in vivo, read-out: beta t1/2 (converted)
# [12] = Elimination half life in iv dosed dog; assay type: ADME, organism-based, Canis lupus familiaris; details: in vivo, read-out: beta t1/2 (converted)
# Liver microsome = assay: Clearance in rat liver microsomes at 1 to 3 uM after 20 mins by LC/MS/MS analysis
# [13] = Aqueous solubility of the compound; assay type: physicochemical; details: buffer
# Rattus norvegicus [14] = assay: Drug excretion in bile duct-cannulated rat assessed as M + 2O-2H level at 5 mg/kg, po; assay type: ADME, organism-based; set-up: dose 5 mg/kg, route oral; details: in vivo
# Rattus norvegicus [15] = assay: Antiobesity activity in diet-induced obese rat as reduction in body weight at 1 mg/kg, po after 28 days; assay type: functional; set-up: scale not given: the % may be the effect or the level left
# [16] = Drug excretion in bile duct-cannulated rat bile at 5 mg/kg, po after 48 hrs; assay type: ADME, organism-based; set-up: dose 5 mg/kg, route oral; details: read-out: Drug excretion
# [17] = Metabolic stability in rat hepatocytes assessed as compound remaining at 0.5 to 3 uM after 2 hrs by LC-MS/MS analysis; assay type: ADME, cell-based, Hepatocyte; details: read-out: Stability
# [18] = Drug excretion in bile duct-cannulated rat urine assessed as M + 2O-2H and M + O + glucuronide level at 5 mg/kg, po after 48 hrs; assay type: ADME, organism-based; set-up: dose 5 mg/kg, route oral; details: in vivo
# Rattus norvegicus [19] = assay: Antiobesity activity in diet-induced obese rat as reduction in body weight at 3 mg/kg, po after 28 days; assay type: functional; set-up: scale not given: the % may be the effect or the level left
# [20] = Oral bioavailability in Sprague-Dawley rat; assay type: ADME, organism-based; details: in vivo
# [21] = Drug excretion in bile duct-cannulated rat bile assessed as M + 2O-2H and M + O + glucuronide level at 5 mg/kg, po after 48 hrs; assay type: ADME, organism-based; set-up: dose 5 mg/kg, route oral; details: in vivo
# [22] = Oral bioavailability in cynomolgus monkey; assay type: ADME, organism-based, Macaca fascicularis; details: in vivo
# Rattus norvegicus [23] = assay: Antiobesity activity in rat assessed as reduction in body weight at 10 mg/kg after 4 days; assay type: functional; set-up: scale not given: the % may be the effect or the level left
# Rattus norvegicus [24] = assay: Antiobesity activity in rat assessed as reduction in body weight at 3 mg/kg after 4 days; assay type: functional; set-up: scale not given: the % may be the effect or the level left
# [25] = Fraction unbound in human plasma at 10 uM by equilibrium dialysis method; assay type: ADME, cell-free
# Rattus norvegicus [26] = assay: Drug excretion in bile duct-cannulated rat assessed as M + O + glucuronide level at 5 mg/kg, po; assay type: ADME, organism-based; set-up: dose 5 mg/kg, route oral; details: in vivo
# [27] = Drug excretion in bile duct-cannulated rat at 5 mg/kg, po; assay type: ADME, organism-based; set-up: dose 5 mg/kg, route oral; details: read-out: Drug excretion
# [28] = Oral bioavailability in dog; assay type: ADME, organism-based, Canis lupus familiaris; details: in vivo
# Cannabinoid receptor 1, sequence (P21554 whole entry): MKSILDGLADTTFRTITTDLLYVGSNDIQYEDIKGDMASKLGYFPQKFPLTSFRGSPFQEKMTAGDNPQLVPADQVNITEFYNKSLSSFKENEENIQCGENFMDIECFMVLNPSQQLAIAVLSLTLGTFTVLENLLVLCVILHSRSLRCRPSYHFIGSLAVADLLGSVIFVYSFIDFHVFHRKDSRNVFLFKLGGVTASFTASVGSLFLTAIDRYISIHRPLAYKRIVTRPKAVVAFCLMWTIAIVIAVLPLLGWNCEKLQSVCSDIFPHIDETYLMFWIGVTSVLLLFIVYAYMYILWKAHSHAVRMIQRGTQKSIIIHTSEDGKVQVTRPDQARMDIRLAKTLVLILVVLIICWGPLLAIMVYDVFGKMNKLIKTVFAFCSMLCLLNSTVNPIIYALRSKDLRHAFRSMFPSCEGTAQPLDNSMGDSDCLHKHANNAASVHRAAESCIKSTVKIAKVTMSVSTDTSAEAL
# Cytochrome P450 2C9, sequence (P11712 whole entry): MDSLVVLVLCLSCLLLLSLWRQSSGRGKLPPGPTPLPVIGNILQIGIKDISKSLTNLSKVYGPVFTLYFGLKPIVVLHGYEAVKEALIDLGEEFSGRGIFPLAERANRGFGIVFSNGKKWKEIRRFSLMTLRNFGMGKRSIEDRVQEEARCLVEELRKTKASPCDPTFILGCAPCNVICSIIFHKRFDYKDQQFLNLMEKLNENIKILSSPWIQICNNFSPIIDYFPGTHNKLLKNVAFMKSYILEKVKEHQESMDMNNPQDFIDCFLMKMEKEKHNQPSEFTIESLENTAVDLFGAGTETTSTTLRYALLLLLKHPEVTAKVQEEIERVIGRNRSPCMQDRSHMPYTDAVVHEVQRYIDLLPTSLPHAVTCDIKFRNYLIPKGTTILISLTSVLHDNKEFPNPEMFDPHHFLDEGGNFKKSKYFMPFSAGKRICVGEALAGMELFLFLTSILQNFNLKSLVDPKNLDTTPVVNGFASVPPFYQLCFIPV
# Cytochrome P450 3A4, sequence (P08684 whole entry): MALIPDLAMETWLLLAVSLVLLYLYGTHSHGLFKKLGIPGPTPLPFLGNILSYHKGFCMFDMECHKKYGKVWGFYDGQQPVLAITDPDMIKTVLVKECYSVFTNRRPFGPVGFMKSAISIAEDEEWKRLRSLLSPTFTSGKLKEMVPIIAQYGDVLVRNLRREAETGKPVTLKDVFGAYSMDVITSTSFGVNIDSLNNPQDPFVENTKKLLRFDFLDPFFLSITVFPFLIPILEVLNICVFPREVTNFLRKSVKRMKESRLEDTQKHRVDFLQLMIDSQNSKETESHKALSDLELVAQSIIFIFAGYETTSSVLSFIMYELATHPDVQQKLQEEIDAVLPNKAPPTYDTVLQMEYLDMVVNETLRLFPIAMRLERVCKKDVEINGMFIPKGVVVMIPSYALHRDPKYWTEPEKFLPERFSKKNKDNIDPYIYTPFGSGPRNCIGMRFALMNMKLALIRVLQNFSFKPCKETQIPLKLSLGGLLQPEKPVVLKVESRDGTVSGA
# Cytochrome P450 2C19, sequence (P33261 whole entry): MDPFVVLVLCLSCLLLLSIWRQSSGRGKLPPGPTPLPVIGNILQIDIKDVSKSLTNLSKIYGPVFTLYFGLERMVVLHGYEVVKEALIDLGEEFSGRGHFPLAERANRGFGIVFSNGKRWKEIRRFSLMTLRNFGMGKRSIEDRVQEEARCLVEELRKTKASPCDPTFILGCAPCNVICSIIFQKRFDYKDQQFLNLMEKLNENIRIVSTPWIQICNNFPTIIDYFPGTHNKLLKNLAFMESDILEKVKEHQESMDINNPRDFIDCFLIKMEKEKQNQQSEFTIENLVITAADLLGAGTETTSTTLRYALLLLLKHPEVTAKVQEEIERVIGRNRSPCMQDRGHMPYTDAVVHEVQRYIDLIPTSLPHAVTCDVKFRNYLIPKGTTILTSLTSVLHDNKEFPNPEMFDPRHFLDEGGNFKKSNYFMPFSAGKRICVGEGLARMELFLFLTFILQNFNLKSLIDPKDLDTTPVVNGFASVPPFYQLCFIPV
structure (smiles),measurement,setting,value
CCn1nc2c(-c3ccc(Cl)cc3)c(-c3cnn(C)c3)c(=O)n(Cc3ccc(C#N)cc3)n2c1=O,IC50,Cytochrome P450 3A4,3400 nM
same,IC50,Cytochrome P450 2C9,> 40000 nM
same,Ki,Cannabinoid receptor 1,92 nM
same,logP,[1],3.8
same,IC50,Cytochrome P450 2C19,> 40000 nM
C[C@H](NC(=O)C(C)(C)Oc1ccc(C(F)(F)F)cn1)[C@@H](Cc1ccc(Cl)cc1)c1cccc(C#N)c1 [TARANABANT],half-life,[2],72 h
O=c1n(Cc2ccc(C(F)(F)F)nc2)nc2c(-c3ccncc3)c(-c3ccc(Cl)cc3)cnn12,clearance,[3],0.4 mL/min/kg
same,Ki,Cannabinoid receptor 1,12 nM
same,logP,[1],3.2
same,minimal effective dose,Rattus norvegicus [4],0.3 mg/kg
same,half-life,[5],15 h
Cn1nc2c(-c3ccc(Cl)cc3)c(-c3ccncc3)c(=O)n(Cc3ccc(C#N)cc3)n2c1=O,Ki,Cannabinoid receptor 1,29 nM
same,logP,[1],3
same,half-life,[5],3.5 h
same,fraction unbound at 10 µM,[6],0.05
Cc1c(C(=O)NN2CCCCC2)nn(-c2ccc(Cl)cc2Cl)c1-c1ccc(Cl)cc1 [RIMONABANT],half-life,[2],216 h
same,Activity,Rattus norvegicus [7],6.2%
same,Activity,Rattus norvegicus [8],5%
COc1nn2c(=O)n(Cc3ccc(C(F)(F)F)nc3)nc2c(-c2ccncc2)c1-c1ccc(Cl)cc1,Ki,Cannabinoid receptor 1,10 nM
same,logP,[1],3.7
same,minimal effective dose,Rattus norvegicus [4],3 mg/kg
same,half-life,[5],17 h
CCn1nc2c(-c3ccc(Cl)cc3)c(-c3ccc(C#N)cc3)c(=O)n(Cc3ccc(C)cc3)n2c1=O,Ki,Cannabinoid receptor 1,12 nM
same,logP,[1],5.2
CCn1nc2c(-c3ccc(Cl)cc3)c(-c3cnc(N(C)C)nc3)c(=O)n(Cc3ccc(C#N)cc3)n2c1=O,IC50,Cytochrome P450 3A4,> 40000 nM
same,IC50,Cytochrome P450 2C9,> 40000 nM
same,Ki,Cannabinoid receptor 1,77 nM
same,logP,[1],4.3
same,IC50,Cytochrome P450 2C19,> 40000 nM
Cc1nc(C(F)(F)F)ccc1Cn1c(=O)c(-c2ccncc2)c(-c2ccc(Cl)cc2)c2nn(C)c(=O)n21,IC50,Cytochrome P450 3A4,6800 nM
same,IC50,Cytochrome P450 2C9,2900 nM
same,clearance,[3],6.3 mL/min/kg
same,Ki,Cannabinoid receptor 1,9 nM
same,Activity,Rattus norvegicus [9],33%
same,minimal effective dose,Rattus norvegicus [10],3 mg/kg
same,half-life,[5],3.3 h
same,IC50,Cytochrome P450 2C19,700 nM
N#Cc1ccc(Cn2nc3c(-c4ccncc4)c(-c4ccc(Cl)cc4)c(=O)n(Cc4ccc(C#N)cc4)n3c2=O)cc1,Ki,Cannabinoid receptor 1,4.2 nM
CCn1nc2c(-c3ccc(Cl)cc3)c(-c3ccncc3C)c(=O)n(Cc3ccc(C(F)(F)F)nc3C)n2c1=O,IC50,Cytochrome P450 3A4,> 40000 nM
same,IC50,Cytochrome P450 2C9,5000 nM
same,Ki,Cannabinoid receptor 1,8.4 nM
same,logP,[1],4.2
same,IC50,Cytochrome P450 2C19,32000 nM
Cc1nn2c(=O)n(Cc3ccc(C(F)(F)F)nc3)nc2c(-c2ccncc2)c1-c1ccc(Cl)cc1,Ki,Cannabinoid receptor 1,210 nM
same,logP,[1],3.3
CCn1nc2c(-c3ccc(Cl)cc3)c(-c3ccc(CO)nc3)c(=O)n(Cc3ccc(C(F)(F)F)nc3C)n2c1=O,half-life,[11],9 h
same,Ki,Cannabinoid receptor 1,5 nM
same,logP,[1],3.6
same,half-life,[5],1.1 h
same,fraction unbound at 10 µM,[6],0.09
same,half-life,[12],7 h
Cc1nc(C(F)(F)F)ccc1Cn1c(=O)c(-c2ccc(C#N)cc2)c(-c2ccc(Cl)cc2)c2nn(C(C)C)c(=O)n21,CLH,Liver microsome,0.014 nmol/min/mg
same,Ki,Cannabinoid receptor 1,1.9 nM
same,logP,[1],5.2
Cn1nc2c(-c3ccncc3)c(-c3ccc(Cl)cc3)c(=O)n(Cc3ccc(C#N)cc3)n2c1=O,Ki,Cannabinoid receptor 1,214 nM
Cn1c(=O)c(-c2ccc(Cl)cc2)c(-c2ccncc2)c2nn(Cc3ccc(C(F)(F)F)nc3)c(=O)n21,Ki,Cannabinoid receptor 1,18 nM
same,logP,[1],3.5
same,minimal effective dose,Rattus norvegicus [4],1 mg/kg
same,half-life,[5],35 h
same,solubility,[13],1 µg/mL
CCn1nc2c(-c3ccc(Cl)cc3)c(-c3ccc(C#N)c(C)c3)c(=O)n(Cc3ccc(C(F)(F)F)nc3C)n2c1=O,CLH,Liver microsome,0 nmol/min/mg
same,Ki,Cannabinoid receptor 1,3 nM
same,logP,[1],5
O=c1[nH]n2c(=O)n(Cc3ccc(C(F)(F)F)nc3)nc2c(-c2ccncc2)c1-c1ccc(Cl)cc1,Ki,Cannabinoid receptor 1,4000 nM
same,logP,[1],2.5
CCc1nc(C(F)(F)F)ccc1Cn1c(=O)c(-c2ccc(C#N)cc2)c(-c2ccc(Cl)cc2)c2nn(CC)c(=O)n21,CLH,Liver microsome,0.152 nmol/min/mg
same,Ki,Cannabinoid receptor 1,1.6 nM
same,logP,[1],5
CCn1nc2c(-c3ccc(C)cc3)c(-c3ccc(C#N)cc3)c(=O)n(Cc3ccc(C(F)(F)F)nc3C)n2c1=O,CLH,Liver microsome,0.052 nmol/min/mg
same,Ki,Cannabinoid receptor 1,2.9 nM
same,logP,[1],4.6
CCNC1(C(N)=O)CCN(c2ncnc3c2nc(-c2ccccc2Cl)n3-c2ccc(Cl)cc2)CC1 [OTENABANT],half-life,[2],120 h
Cn1nc2c(-c3ccc(Cl)cc3)c(-c3ccncc3)c(=O)n(Cc3ccc(C(F)(F)F)nc3)n2c1=O,IC50,Cytochrome P450 2C9,1900 nM
same,Ki,Cannabinoid receptor 1,28 nM
same,Activity,Rattus norvegicus [9],21%
same,minimal effective dose,Rattus norvegicus [10],3 mg/kg
same,half-life,[5],6 h
same,solubility,[13],40 µg/mL
same,IC50,Cytochrome P450 2C19,4300 nM
CCn1nc2c(-c3ccc(Cl)cc3)c(-c3ccc(C#N)cc3)c(=O)n(Cc3ccc(C(F)(F)F)nc3C)n2c1=O,half-life,[11],40 h
same,IC50,Cytochrome P450 3A4,> 40000 nM
same,IC50,Cytochrome P450 2C9,> 40000 nM
same,Ki,Cannabinoid receptor 1,1.4 nM
same,logP,[1],4.6
same,half-life,[5],7 h
same,solubility,[13],3 µg/mL
same,IC50,Cytochrome P450 2C19,> 40000 nM
same,half-life,[12],70 h
CCn1nc2c(-c3ccc(Cl)cc3)c(-c3ccc(C#N)cc3)c(=O)n(Cc3ccc(C#N)cc3)n2c1=O,half-life,[11],8 h
same,Ki,Cannabinoid receptor 1,5 nM
same,logP,[1],4.2
same,fraction unbound at 10 µM,[6],0.01
same,half-life,[12],45 h
CCn1nc2c(-c3ccc(Cl)cc3)c(-c3ccncc3F)c(=O)n(Cc3ccc(C(F)(F)F)nc3C)n2c1=O,IC50,Cytochrome P450 3A4,7000 nM
same,IC50,Cytochrome P450 2C9,14000 nM
same,Ki,Cannabinoid receptor 1,3.2 nM
same,logP,[1],4.3
same,IC50,Cytochrome P450 2C19,5000 nM
CCn1nc2c(-c3ccc(Cl)cc3)c(-c3cnc(C)nc3)c(=O)n(Cc3ccc(C(F)(F)F)nc3C)n2c1=O,half-life,[11],12 h
same,Drug excretion,Rattus norvegicus [14],36 %ID
same,Activity,Rattus norvegicus [15],2.4%
same,dose excreted at 48 h,[16],0.8%
same,IC50,Cytochrome P450 3A4,> 40000 nM
same,"remaining at 2 h, 3 µM",[17],5%
same,Drug excretion,[18],7 %ID
same,IC50,Cytochrome P450 2C9,> 40000 nM
same,Activity,Rattus norvegicus [19],4.1%
same,Ki,Cannabinoid receptor 1,4.7 nM
same,bioavailability,[20],73%
same,logP,[1],3.8
same,Drug excretion,[21],76 %ID
same,bioavailability,[22],51%
same,Activity,Rattus norvegicus [23],7.2%
same,Activity,Rattus norvegicus [7],10.2%
same,half-life,[5],5 h
same,Activity,Rattus norvegicus [24],2.8%
same,fraction unbound at 10 µM,[6],0.13
same,fraction unbound at 10 µM,[25],0.07
same,solubility,[13],17 µg/mL
same,Drug excretion,Rattus norvegicus [26],26 %ID
same,dose excreted,[27],< 1%
same,bioavailability,[28],75%
same,IC50,Cytochrome P450 2C19,> 40000 nM
same,half-life,[12],42 h
CCCn1nc2c(-c3ccc(Cl)cc3)c(-c3ccc(C#N)cc3)c(=O)n(Cc3ccc(C(F)(F)F)nc3C)n2c1=O,CLH,Liver microsome,0.17 nmol/min/mg
same,clearance,[3],29 mL/min/kg
same,Ki,Cannabinoid receptor 1,1.7 nM
same,logP,[1],5.1
same,half-life,[5],29 h
CCn1nc2c(-c3ccc(Cl)cc3)c(-c3ccncc3)c(=O)n(Cc3ccc(C(F)(F)F)nc3)n2c1=O,IC50,Cytochrome P450 3A4,18000 nM
same,IC50,Cytochrome P450 2C9,4900 nM
same,clearance,[3],37 mL/min/kg
same,Ki,Cannabinoid receptor 1,15 nM
same,logP,[1],4
same,half-life,[5],2.4 h
same,IC50,Cytochrome P450 2C19,11000 nM
